{"source": "PubChem BioAssay AID330", "about": "(DTP/NCI, 2004)", "test_system": "P388 leukemia ip, CD2F1 mice, survival T/C", "assay": "NCI In Vivo Anticancer Drug Screen. Data for tumor model P388 Leukemia (intraperitoneal) in CD2F1 (CDF1) mice", "conditions": "endpoint: median survival time, higher = longer survival", "how_it_was_run": "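Mice carrying the transplanted tumor received test compound or vehicle. Survival was recorded in each group, and the value is the treated-group measurement divided by that of the vehicle-treated control group.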", "key": {"[1]": {"conditions": "dose: 60.0 mg/kg/injection, schedule: Q01DX005 (ip), vehicle: saline with Tween-80"}, "[2]": {"conditions": "dose: 120.0 mg/kg/injection, schedule: Q01DX005 (ip), vehicle: saline with Tween-80"}, "[3]": {"conditions": "dose: 240.0 mg/kg/injection, schedule: Q01DX005 (ip), vehicle: saline with Tween-80"}, "[4]": {"conditions": "dose: 50.0 mg/kg/injection, schedule: Q01DX005 (ip), vehicle: Klucel (hydroxypropylcellulose) (HPC)"}, "[5]": {"conditions": "dose: 100.0 mg/kg/injection, schedule: Q01DX005 (ip), vehicle: Klucel (hydroxypropylcellulose) (HPC)"}, "[6]": {"conditions": "dose: 200.0 mg/kg/injection, schedule: Q01DX005 (ip), vehicle: Klucel (hydroxypropylcellulose) (HPC)"}, "[7]": {"conditions": "dose: 25.0 mg/kg/injection, schedule: Q01DX009 (ip), vehicle: saline with Tween-80"}, "[8]": {"conditions": "dose: 50.0 mg/kg/injection, schedule: Q01DX009 (ip), vehicle: saline with Tween-80"}}, "note": "“And” between values parts separate entries of the source, which are not always exact repeats. Identical values can stand only once. Toxic doses and inconclusive results are not listed.", "data": [{"smiles": "Nc1ncnc2c1ncn2C1OC(COC2C(CO)OC(OC(C(=O)O)C(O)C(OP(=O)(O)O)C(O)C(=O)O)C(O)C2O)C(O)C1O", "note": "(stereo not drawn)", "values": [{"measurement": "T/C", "setting": "dose: 0.25 mg/kg/injection, schedule: Q01DX009 (ip), vehicle: saline", "result": "96 % of control"}, {"measurement": "T/C", "setting": "dose: 0.5 mg/kg/injection, schedule: Q01DX009 (ip), vehicle: saline", "result": "105 % of control"}, {"measurement": "T/C", "setting": "dose: 1.0 mg/kg/injection, schedule: Q01DX009 (ip), vehicle: saline", "result": "96 % of control"}]}, {"smiles": "COc1c(O)c(O)cc2c1-c1ccc(OC)c(=O)cc1C(NC(C)=O)CC2", "note": "(stereo not drawn)", "values": [{"measurement": "T/C", "setting": "dose: 1.25 mg/kg/injection, schedule: Q01DX009 (ip), vehicle: water", "result": "114 % of control"}, {"measurement": "T/C", "setting": "dose: 2.5 mg/kg/injection, schedule: Q01DX009 (ip), vehicle: water", "result": "117 % of control"}, {"measurement": "T/C", "setting": "dose: 20.0 mg/kg/injection, schedule: Q01DX009 (ip), vehicle: water", "result": "166 % of control and 177 % of control"}, {"measurement": "T/C", "setting": "dose: 40.0 mg/kg/injection, schedule: Q01DX009 (ip), vehicle: water", "result": "204 % of control"}]}, {"smiles": "CC(=O)C(F)(F)C(F)(F)C(F)(F)C(F)(F)C(C)=O", "values": [{"measurement": "T/C", "setting": "[1]", "result": "99 % of control"}, {"measurement": "T/C", "setting": "[2]", "result": "94 % of control"}, {"measurement": "T/C", "setting": "[3]", "result": "103 % of control"}]}, {"smiles": "C/C(N)=C(\\C#N)C(=O)c1ccccc1", "values": [{"measurement": "T/C", "setting": "[4]", "result": "100 % of control"}, {"measurement": "T/C", "setting": "[5]", "result": "103 % of control"}, {"measurement": "T/C", "setting": "[6]", "result": "111 % of control"}]}, {"smiles": "O=C1Nc2ccccc2C(O)(c2ccccc2)N1Cc1ccccc1", "note": "(stereo not drawn)", "values": [{"measurement": "T/C", "setting": "dose: 6.25 mg/kg/injection, schedule: Q01DX009 (ip), vehicle: saline with Tween-80", "result": "91 % of control"}, {"measurement": "T/C", "setting": "dose: 12.5 mg/kg/injection, schedule: Q01DX009 (ip), vehicle: saline with Tween-80", "result": "100 % of control"}, {"measurement": "T/C", "setting": "[7]", "result": "88 % of control"}, {"measurement": "T/C", "setting": "dose: 200.0 mg/kg/injection, schedule: Q01DX009 (ip), vehicle: saline", "result": "87 % of control"}]}, {"smiles": "S=C(Nc1cc(Cl)c(Cl)cc1Cl)SCc1ccccc1", "values": [{"measurement": "T/C", "setting": "dose: 50.0 mg/kg/injection, schedule: Q01DX009 (ip), vehicle: suspension in saline", "result": "93 % of control"}, {"measurement": "T/C", "setting": "dose: 100.0 mg/kg/injection, schedule: Q01DX009 (ip), vehicle: suspension in saline", "result": "93 % of control"}]}, {"smiles": "C=C(C)CC1=C(C)C(=O)C(C)=C(C)C1=O", "values": [{"measurement": "T/C", "setting": "dose: 75.0 mg/kg/injection, schedule: Q04DX003 (ip), vehicle: Klucel (hydroxypropylcellulose) (HPC)", "result": "110 % of control"}, {"measurement": "T/C", "setting": "dose: 150.0 mg/kg/injection, schedule: Q04DX003 (ip), vehicle: Klucel (hydroxypropylcellulose) (HPC)", "result": "105 % of control"}, {"measurement": "T/C", "setting": "dose: 300.0 mg/kg/injection, schedule: Q04DX003 (ip), vehicle: Klucel (hydroxypropylcellulose) (HPC)", "result": "122 % of control"}]}, {"smiles": "Cc1cc(C)nc(NCCCCNc2nc(C)cc(C)n2)n1", "values": [{"measurement": "T/C", "setting": "[4]", "result": "92 % of control"}, {"measurement": "T/C", "setting": "[5]", "result": "105 % of control"}, {"measurement": "T/C", "setting": "[6]", "result": "100 % of control"}]}, {"smiles": "Nc1c[nH]c(=S)s1", "values": [{"measurement": "T/C", "setting": "[7]", "result": "116 % of control"}, {"measurement": "T/C", "setting": "[8]", "result": "114 % of control"}, {"measurement": "T/C", "setting": "dose: 100.0 mg/kg/injection, schedule: Q01DX009 (ip), vehicle: saline with Tween-80", "result": "94 % of control"}]}, {"smiles": "NCCN.NCCN.[Cl-].[O]=[Os+2]=[O]", "values": [{"measurement": "T/C", "setting": "[1]", "result": "118 % of control"}, {"measurement": "T/C", "setting": "[2]", "result": "114 % of control"}]}, {"smiles": "C(=Nc1ccccc1)C1CCCC[N-]1.C(=Nc1ccccc1)C1CCCC[N-]1.[Cu+2].[O-][Cl+3]([O-])([O-])O", "note": "(stereo not drawn)", "values": [{"measurement": "T/C", "setting": "dose: 4.5 mg/kg/injection, schedule: Q01DX009 (ip), vehicle: saline with Tween-80", "result": "90 % of control"}, {"measurement": "T/C", "setting": "dose: 9.0 mg/kg/injection, schedule: Q01DX009 (ip), vehicle: saline with Tween-80", "result": "97 % of control"}, {"measurement": "T/C", "setting": "dose: 18.0 mg/kg/injection, schedule: Q01DX009 (ip), vehicle: saline with Tween-80", "result": "97 % of control"}, {"measurement": "T/C", "setting": "dose: 18.75 mg/kg/injection, schedule: Q01DX009 (ip), vehicle: saline with Tween-80", "result": "97 % of control"}, {"measurement": "T/C", "setting": "[8]", "result": "96 % of control"}]}, {"smiles": "CCOc1cccc(Cc2c[nH]c(=O)[nH]c2=O)c1", "values": [{"measurement": "T/C", "setting": "[1]", "result": "94 % of control"}, {"measurement": "T/C", "setting": "[2]", "result": "92 % of control"}, {"measurement": "T/C", "setting": "[3]", "result": "90 % of control"}]}, {"smiles": "CCOc1cnc(CO)o1", "values": [{"measurement": "T/C", "setting": "dose: 100.0 mg/kg/injection, schedule: Q04DX003 (ip), vehicle: saline", "result": "103 % of control"}, {"measurement": "T/C", "setting": "dose: 200.0 mg/kg/injection, schedule: Q04DX003 (ip), vehicle: saline", "result": "104 % of control"}, {"measurement": "T/C", "setting": "dose: 400.0 mg/kg/injection, schedule: Q04DX003 (ip), vehicle: saline", "result": "97 % of control"}]}, {"smiles": "O=C1CS(=O)(=O)CN1N1CS(=O)(=O)CC1=O", "values": [{"measurement": "T/C", "setting": "dose: 50.0 mg/kg/injection, schedule: Q01DX005 (ip), vehicle: saline with Tween-80", "result": "102 % of control"}, {"measurement": "T/C", "setting": "dose: 100.0 mg/kg/injection, schedule: Q01DX005 (ip), vehicle: saline with Tween-80", "result": "98 % of control"}, {"measurement": "T/C", "setting": "dose: 200.0 mg/kg/injection, schedule: Q01DX005 (ip), vehicle: saline with Tween-80", "result": "98 % of control"}]}, {"smiles": "COc1ccc(CCC#N)cc1OC", "values": [{"measurement": "T/C", "setting": "dose: 25.0 mg/kg/injection, schedule: Q01DX009 (ip), vehicle: other", "result": "104 % of control"}, {"measurement": "T/C", "setting": "dose: 50.0 mg/kg/injection, schedule: Q01DX009 (ip), vehicle: other", "result": "105 % of control"}, {"measurement": "T/C", "setting": "dose: 100.0 mg/kg/injection, schedule: Q01DX009 (ip), vehicle: other", "result": "100 % of control"}, {"measurement": "T/C", "setting": "dose: 200.0 mg/kg/injection, schedule: Q01DX009 (ip), vehicle: other", "result": "110 % of control"}]}]}
